Literature values in patent US10646430B2, “Topical compositions for stimulating adipogenesis and lipogenesis to reduce the signs of skin aging” (Kimberly-Clark Worldwide, Inc., priority 2014, dated 2020).

Test system: 3T3-L1 cells
Conditions: Kim et al., Nutr. Res. 32(6): 439-447

For Fucoidan, the “adipogenesis (literature)” value is given as “inhibit adipogenesis”.
